Data on seven compounds can be found in patent US10035794B2, “Heterocyclic derivatives and their use in the treatment of neurological disorders” (NOVARTIS AG, priority 2011, dated 2018).

Counter-ions that a name gives are not always drawn.

One assay addresses Human BACE-1 (Homo sapiens (Human), UniProt P56817). The experiment in a line: Test 1: Inhibition of Human BACE-1. The note with it: read-out: BACE-1 IC50; mean IC50, recombinant BACE-1, pH 4.5.
For another assay, the target named is Human BACE-2 (Homo sapiens (Human), UniProt Q9Y5Z0). Nature of the assay: Test 2: Inhibition of Human BACE-2. It counts as biochemical. Particulars: mean IC50, recombinant BACE-2, pH 4.5. An excerpt: Test 2: Inhibition of Human BACE-2
Human BACE-2, sequence (Q9Y5Z0 63-473): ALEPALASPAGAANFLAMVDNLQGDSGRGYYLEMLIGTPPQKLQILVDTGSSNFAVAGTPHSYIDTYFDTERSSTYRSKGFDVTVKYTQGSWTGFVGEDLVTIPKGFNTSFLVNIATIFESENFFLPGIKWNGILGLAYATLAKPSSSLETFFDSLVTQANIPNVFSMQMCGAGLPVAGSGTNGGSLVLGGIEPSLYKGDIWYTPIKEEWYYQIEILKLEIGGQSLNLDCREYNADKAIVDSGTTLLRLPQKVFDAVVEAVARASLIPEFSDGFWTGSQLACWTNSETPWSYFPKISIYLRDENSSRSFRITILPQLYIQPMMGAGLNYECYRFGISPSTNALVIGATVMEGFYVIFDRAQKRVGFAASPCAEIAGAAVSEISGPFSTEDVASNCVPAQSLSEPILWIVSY
Assay [1] in a line: Test 4: Inhibition of Cellular Release of Amyloid Peptide 1-40. It counts as cell-based, Chinese hamster. Particulars: Cricetulus griseus, CHO, 24 h; read-out: Amyloid-β1-40 release IC50. Here is the method:
Chinese hamster ovary cells are transfected with the human gene for amyloid precursor protein. The cells are plated at a density of 8000 cells/well into 96-well microtiter plates and cultivated for 24 hours in DMEM cell culture medium containing 10% FCS. The test compound is added to the cells at various concentrations, and the cells are cultivated for 24 hours in the presence of the test compound.

Human BACE-1, sequence (P56817 46-457): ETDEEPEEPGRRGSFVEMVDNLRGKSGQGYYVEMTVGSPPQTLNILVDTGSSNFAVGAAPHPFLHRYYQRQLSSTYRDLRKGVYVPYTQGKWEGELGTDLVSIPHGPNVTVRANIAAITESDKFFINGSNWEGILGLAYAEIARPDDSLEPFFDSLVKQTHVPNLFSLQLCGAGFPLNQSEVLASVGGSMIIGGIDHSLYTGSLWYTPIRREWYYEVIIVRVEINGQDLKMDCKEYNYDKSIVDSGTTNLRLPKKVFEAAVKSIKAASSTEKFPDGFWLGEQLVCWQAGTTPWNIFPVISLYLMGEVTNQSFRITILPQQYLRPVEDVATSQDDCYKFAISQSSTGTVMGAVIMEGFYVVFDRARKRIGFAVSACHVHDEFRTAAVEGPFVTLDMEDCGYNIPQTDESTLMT

For orientation: IC50 means the concentration that inhibits the measured activity by half. For the compound `NC1=NC(CF)(c2cccc(NC(=O)c3ccc(Br)cn3)n2)COC1` (stereo not drawn) [Example 4, 5-Bromo-pyridine-2-carboxylic acid [6-(5-amino-3-fluoromethyl-3,6-dihydro-2H-[1,4]oxazin-3-yl)-pyridin-2-yl]-amide], the IC50 at Human BACE-1 was 1600 nM; on Human BACE-2, 1700 nM; in assay [1], 98 nM.

On to `NC1=NC(CF)(c2cccc(NC(=O)c3ccc(Cl)cn3)n2)COC1` (stereo not drawn) [Example 3, 5-{6-[(5-Chloro-pyridine-2-carbonyl)-amino]-pyridin-2-yl}-5-fluoromethyl-5,6-dihydro-2H-[1,4]oxazin-3-yl-ammonium trifluoro acetate], for which the IC50 came out at 2600 nM on Human BACE-1 and 140 nM in assay [1]. Take `Cc1cc(C#N)cnc1C(=O)Nc1cccc(C2(CF)COCC(N)=N2)n1` (stereo not drawn) [Example 5, 5-{6-[(5-Cyano-3-methyl-pyridine-2-carbonyl)-amino]-pyridin-2-yl}-5-fluoromethyl-5,6-dihydro-2H-[1,4]oxazin-3-yl-ammonium trifluoro acetate]: the IC50 was determined as 270 nM at Human BACE-1, 1000 nM on Human BACE-2 and 40 nM in assay [1]. Consider `NC1=NC(CF)(c2cc(NC(=O)c3ccc(Br)cn3)cnc2Cl)COC1` (stereo not drawn) [Example 18, 5-Bromo-pyridine-2-carboxylic acid [5-(5-amino-3-fluoromethyl-3,6-dihydro-2H-[1,4]oxazin-3-yl)-6-chloro-pyridin-3-yl]-amide hydrochloride], for which the IC50 in assay [1] was found to be 15 nM. Regarding `Cc1cc(C#N)cnc1C(=O)Nc1cc([C@]2(C)COC(CF)(CF)C(N)=N2)c(F)cn1` [Example 37, 5-Cyano-3-methyl-pyridine-2-carboxylic acid [4-((R)-5-amino-6,6-bis-fluoromethyl-3-methyl-3,6-dihydro-2H-[1,4]oxazin-3-yl)-5-fluoro-pyridin-2-yl]-amide], the IC50 in assay [1] was 83 nM. Consider `C[C@@]1(c2cccc(NC(=O)c3ncc(Br)cc3Cl)n2)CO[C@@](C)(C(F)(F)F)C(N)=N1` [Example 22, 5-Bromo-3-chloro-pyridine-2-carboxylic acid [6-((3R,6R)-5-amino-3,6-dimethyl-6-trifluoromethyl-3,6-dihydro-2H-[1,4]oxazin-3-yl)-pyridin-2-yl]-amide], for which, in assay [1], the IC50 was determined as 29 nM. For `C[C@@]1(c2cccc(NC(=O)c3ncc(C#N)cc3Cl)n2)CO[C@@](C)(C(F)(F)F)C(N)=N1` [Example 20, 3-Chloro-5-cyano-pyridine-2-carboxylic acid [6-((3R,6R)-5-amino-3,6-dimethyl-6-trifluoromethyl-3,6-dihydro-2H-[1,4]oxazin-3-yl)-pyridin-2-yl]-amide], in assay [1], the 50% inhibitory concentration (IC50) was determined as 5 nM.
